# Laboratory results taken from US9617244B2, “Antibacterial quinoline derivatives” (JANSSEN PHARMACEUTICA NV, priority 2012, dated 2017).
# Experiments:
# [1] = system: Staphylococcus aureus (ATCC29213); assay: In-vitro anti-bacterial activity, microtitre plate assay, IC90 determination (non-mycobacterial strains); type: cell-based; conditions: 90% inhibitory concentration for bacterial growth, resazurin fluorescence; for IC90 STA B29213: 24 hours; for IC90: Staphylococcus aureus, ATCC29213, 24 h, read-out: IC90 STA B29213
# Description: D.2. In-Vitro Method for Testing Compounds for Anti-Bacterial Activity Against Various Non-Mycobacterial Strains
# Preparation of Bacterial Suspensions for Susceptibility Testing:
# The bacteria used in this study were grown overnight in flasks containing 100 ml Mueller-Hinton Broth (Becton Dickinson—cat. no. 275730) in sterile de-ionized water, with shaking, at 37° C. Stocks (0.5 ml/tube) were stored at −70° C. until use. Bacteria titrations were performed in microtiter plates to detect the TCID50, in which TCID50 represents the dilution that gives rise to bacterial growth in 50% of inoculated cultures. In general, an inoculum level of approximately 100 TCID50 was used for susceptibility testing.
# Anti Bacterial Susceptibility Testing: IC90 Determination
# Flat-bottom, sterile 96-well plastic microtiter plates were filled with 180 μl of sterile deionized water, supplemented with 0.25% BSA. Subsequently, stock solutions (7.8× final test concentration) of compounds were added in 45 μl volumes in column 2 Serial five-fold dilutions (45 μl in 180 μl) were made directly in the microtiter plates from column 2 to reach column 11. Untreated control samples with (column 1) and without (column 12) inoculum were included in each microtiter plate. Depending on the bacteria type, approximately 10 to 60 CFU per well of bacteria inoculum (100 TCID50), in a volume of 100 μl in 2.8× Mueller-Hinton broth medium, was added to the rows A to H, except column 12. The same volume of broth medium without inoculum was added to column 12 in row A to H. The cultures were incubated at 37° C. for 24 hours under a normal atmosphere (incubator with open air valve and continuous ventilation). At the end of incubation, one day after inoculation, the bacterial growth was quantitated fluorometrically. Therefore resazurin (0.6 mg/ml) was added in a volume of 20 μl to all wells 3 hours after inoculation, and the plates were re-incubated overnight. A change in colour from blue to pink indicated the growth of bacteria. The fluorescence was read in a computer-controlled fluorometer (Cytofluor Biosearch) at an excitation wavelength of 530 nm and an emission wavelength of 590 nm. The % growth inhibition achieved by the compounds was calculated according to standard methods. The IC90 (expressed in μg/ml) was defined as the 90% inhibitory concentration for bacterial growth.
# [2] = system: Mycobacterium smegmatis (ATCC607); assay: In-vitro anti-bacterial activity against strain M. Smegmatis ATCC607; type: cell-based; conditions: 90% inhibitory concentration for bacterial growth, Alamar Blue fluorescence; for IC90: Mycolicibacterium smegmatis, ATCC607, 48 h, read-out: IC90 MSM 607; for IC90 MSM 607: 48 hours
# Description: D.1. In-Vitro Method for Testing Compounds for Anti-Bacterial Activity Against Strain M. Smegmatis ATCC607
# Flat-bottom, sterile 96-well plastic microtiter plates were filled with 180 μl of sterile deionized water, supplemented with 0.25% BSA. Subsequently, stock solutions (7.8× final test concentration) of compounds were added in 45 μl volumes to a series of duplicate wells in column 2 so as to allow evaluation of their effects on bacterial growth. Serial five-fold dilutions (45 μl in 180 μl) were made directly in the microtiter plates from column 2 to 11 using a customised robot system (Zymark Corp., Hopkinton, Mass.). Pipette tips were changed after every 3 dilutions to minimize pipetting errors with high hydrophobic compounds. Untreated control samples with (column 1) and without (column 12) inoculum were included in each microtiter plate. Approximately 250 CFU per well of bacteria inoculum, in a volume of 100 μl in 2.8× Mueller-Hinton broth medium, was added to the rows A to H, except column 12. The same volume of broth medium without inoculum was added to column 12 in row A to H. The cultures were incubated at 37° C. for 48 hours in a humidified 5% CO2 atmosphere (incubator with open air valve and continuous ventilation). At the end of incubation, two days after inoculation, the bacterial growth was quantitated fluorometrically. Therefore Alamar Blue (10×) was added to all wells in a volume of 20 μl and plates were incubated for another 2 hours at […]
# The fluorescence was read in a computer-controlled fluorometer (Cytofluor, Biosearch) at an excitation wavelength of 530 nm and an emission wavelength of 590 nm (gain 30). The percentage growth inhibition achieved by the compounds was calculated according to standard methods and expressed as IC90 (μg/ml) which defines the 90% inhibitory concentration for bacterial growth.
Compound,IC90 STA B29213 [1],IC90 [2],IC90 [1],IC90 MSM 607 [2]
Cc1cc(F)ccc1C1CC(O)(C(c2ccc(Cl)cc2)c2cc3cc(Br)ccc3[nH]c2=O)CCN1 (stereo not drawn) [Compound 106],1.87 µg/mL,,,<0.93 µg/mL
Cc1cc(F)ccc1C1CC(O)(C(c2ccc(Cl)cc2)c2cc3cc(Br)ccc3[nH]c2=O)CCN1 (stereo not drawn) [Compound 107],,,1.87 µg/mL,2.65 µg/mL
Cc1cc(F)ccc1C1CC(O)(C(c2ccc(Cl)cc2)c2cc3cc(Br)ccc3[nH]c2=O)CCN1 (stereo not drawn) [Compound 110],1.87 µg/mL,,,1.87 µg/mL
CC1CC(O)(C(c2ccc(Cl)cc2)c2cc3cc(Br)ccc3[nH]c2=O)CCN1 (stereo not drawn) [Compound 129],,7.9 µg/mL,12.5 µg/mL,
CC1CC(O)(C(c2ccc(Cl)cc2)c2cc3cc(Br)ccc3[nH]c2=O)CCN1 (stereo not drawn) [Compound 130],11.60 µg/mL,,,5.81 µg/mL
CC1CC(O)(C(c2ccc(Cl)cc2)c2cc3cc(Br)ccc3[nH]c2=O)CCN1 (stereo not drawn) [Compound 131],>6.27 µg/mL,,,4.98 µg/mL
Cc1cc(F)ccc1C1CC(O)(C(c2cccc(Cl)c2)c2cc3cc(Br)ccc3[nH]c2=O)CCN1 (stereo not drawn) [Compound 135],1.84 µg/mL,,,1.84 µg/mL
Cc1cc(F)ccc1C1CC(O)(C(c2cccc(Cl)c2)c2cc3cc(Br)ccc3[nH]c2=O)CCN1 (stereo not drawn) [Compound 136],2.08 µg/mL,,,1.47 µg/mL
Cc1cc(F)ccc1C1CC(O)(C(c2cccc(Cl)c2)c2cc3cc(Br)ccc3[nH]c2=O)CCN1 (stereo not drawn) [Compound 137],3.69 µg/mL,,,1.65 µg/mL
Cc1cc(F)ccc1C1CC(O)(C(c2cccc(Cl)c2)c2cc3cc(Br)ccc3[nH]c2=O)CCN1 (stereo not drawn) [Compound 138],2.35 µg/mL,,,1.18 µg/mL
Cc1cc(F)ccc1C1CC(O)(C(c2cccc(Cl)c2)c2cc3cc(Br)ccc3[nH]c2=O)CCN1 (stereo not drawn) [Compound 143],1.82 µg/mL,,,2.04 µg/mL
Cc1cc(F)ccc1C1CC(O)(C(c2cccc(Cl)c2)c2cc3cc(Br)ccc3[nH]c2=O)CCN1 (stereo not drawn) [Compound 144],3.63 µg/mL,,,3.24 µg/mL
Cc1cc(F)ccc1C1CC(O)(C(c2cccc(Cl)c2)c2cc3cc(Br)ccc3[nH]c2=O)CCN1 (stereo not drawn) [Compound 145],2.92 µg/mL,,,2.32 µg/mL
Cc1cc(F)ccc1C1CC(O)(C(c2cccc(Cl)c2)c2cc3cc(Br)ccc3[nH]c2=O)CCN1 (stereo not drawn) [Compound 146],2.35 µg/mL,,,1.87 µg/mL
COc1nc2ccc(SC)cc2cc1C(c1cccc(Cl)c1)C1(O)CCNC(c2ccc(F)cc2C)C1 (stereo not drawn) [Compound 147],3.39 µg/mL,,,1.51 µg/mL
COc1nc2ccc(SC)cc2cc1C(c1cccc(Cl)c1)C1(O)CCNC(c2ccc(F)cc2C)C1 (stereo not drawn) [Compound 148],3.39 µg/mL,,,1.70 µg/mL
COc1nc2ccc(Br)cc2cc1C(c1cccc(Cl)c1)C1(O)CCNC(c2ccc(F)cc2C)C1 (stereo not drawn) [Compound 149],5.63 µg/mL,,,2.52 µg/mL
COc1nc2ccc(Br)cc2cc1C(c1cccc(Cl)c1)C1(O)CCNC(c2ccc(F)cc2C)C1 (stereo not drawn) [Compound 150],2.63 µg/mL,,,1.66 µg/mL
COc1nc2ccc(Br)cc2cc1C(c1cccc(Cl)c1)C1(O)CCNC(c2ccc(F)cc2C)C1 (stereo not drawn) [Compound 151],5.26 µg/mL,,,2.35 µg/mL
COc1nc2ccc(Br)cc2cc1C(c1cccc(Cl)c1)C1(O)CCNC(c2ccc(F)cc2C)C1 (stereo not drawn) [Compound 152],2.78 µg/mL,,,1.76 µg/mL
Cc1cc(F)ccc1C1CC(O)(C(c2cccc(Cl)c2)c2cc3cc(S(C)(=O)=O)ccc3[nH]c2=O)CCN1 (stereo not drawn) [Compound 159],>14.69 µg/mL,,,>14.69 µg/mL
CSc1ccc2[nH]c(=O)c(C(c3cccc(Cl)c3)C3(O)CCNC(c4ccc(F)cc4C)C3)cc2c1 (stereo not drawn) [Compound 160],3.51 µg/mL,,,2.48 µg/mL
CSc1ccc2[nH]c(=O)c(C(c3cccc(Cl)c3)C3(O)CCNC(c4ccc(F)cc4C)C3)cc2c1 (stereo not drawn) [Compound 161],6.90 µg/mL,,,6.90 µg/mL
CSc1ccc2[nH]c(=O)c(C(c3cccc(Cl)c3)C3(O)CCNC(c4ccc(F)cc4C)C3)cc2c1 (stereo not drawn) [Compound 162],3.52 µg/mL,,,2.49 µg/mL

# Next, values leading:
IC90 STA B29213 [1],IC90 [2],IC90 [1],IC90 MSM 607 [2],Compound
7.23 µg/mL,3.62 µg/mL,,,O=c1[nH]c2ccc(Br)cc2cc1C(c1cccc(Cl)c1)C1(O)CCNC(Cc2ccccc2)C1 (stereo not drawn) [Compound 85]
,1.8 µg/mL,3.58 µg/mL,,CSc1nc2ccc(Br)cc2cc1C(c1ccc(Cl)cc1)C1(O)CCNC(Cc2ccccc2)C1 (stereo not drawn) [Compound 89]
2.02 µg/mL,,,1.43 µg/mL,COc1nc2ccc(Cl)cc2cc1C(c1ccc(Cl)cc1)C1(O)CCNC(Cc2ccccc2)C1 (stereo not drawn) [Compound 95]
,> 20.6 µg/mL,> 20.6 µg/mL,,COc1nc2ccc(C(=O)O)cc2cc1C(c1ccc(Cl)cc1)C1(O)CCNC(Cc2ccccc2)C1 (stereo not drawn) [Compound 118]
>16.90 µg/mL,,,>16.90 µg/mL,CS(=O)(=O)c1ccc2[nH]c(=O)c(C(c3ccc(Cl)cc3)C3(O)CCNC(Cc4ccccc4)C3)cc2c1 (stereo not drawn) [Compound 119]
6.76 µg/mL,,,5.37 µg/mL,CS(=O)(=O)c1ccc2[nH]c(=O)c(C(c3ccc(Cl)cc3)C3(O)CCNC(Cc4ccccc4)C3)cc2c1 (stereo not drawn) [Compound 120]
3.00 µg/mL,,,3.00 µg/mL,COc1nc2ccc(Br)cc2cc1C(c1ccc(Cl)cc1)C1(O)CCNC(C)C1 (stereo not drawn) [Compound 125]
3.85 µg/mL,,,3.06 µg/mL,O=c1[nH]c2ccc(Br)cc2cc1C(c1ccc(Cl)cc1)C1(O)CCNC(Cc2ccc(F)c(F)c2)C1 (stereo not drawn) [Compound 126]
1.93 µg/mL,,,3.06 µg/mL,O=c1[nH]c2ccc(Br)cc2cc1C(c1ccc(Cl)cc1)C1(O)CCNC(Cc2ccc(F)c(F)c2)C1 (stereo not drawn) [Compound 127]
4.56 µg/mL,3.62 µg/mL,,,O=c1[nH]c2ccc(Br)cc2cc1C(c1ccc(Cl)cc1)C1(O)CCNC(Cc2ccccc2)C1 (stereo not drawn) [Compound 128]
3.85 µg/mL,,,3.06 µg/mL,O=c1[nH]c2ccc(Br)cc2cc1C(c1ccc(Cl)cc1)C1(O)CCNC(Cc2ccc(F)c(F)c2)C1 (stereo not drawn) [Compound 133]
3.07 µg/mL,,,3.86 µg/mL,O=c1[nH]c2ccc(Br)cc2cc1C(c1ccc(Cl)cc1)C1(O)CCNC(Cc2ccc(F)c(F)c2)C1 (stereo not drawn) [Compound 134]
,,2 µg/mL,1.78 µg/mL,COc1nc2ccccc2cc1C(c1ccc(Cl)cc1)C1(O)CCNC(Cc2ccc(F)c(F)c2)C1 (stereo not drawn) [Compound 139]
2.55 µg/mL,,,0.72 µg/mL,COc1nc2ccccc2cc1C(c1ccc(Cl)cc1)C1(O)CCNC(Cc2ccc(F)c(F)c2)C1 (stereo not drawn) [Compound 140]
7.77 µg/mL,,,4.37 µg/mL,COc1nc2ccc(SC)cc2cc1C(c1ccccc1)C1(O)CCNC(Cc2ccccc2)C1 (stereo not drawn) [Compound 141]
